Data as given in patent US20110236325A1, “METHODS TO TREAT OR PREVENT A SKIN CONDITION USING A NELL1 PEPTIDE” (NellOne Therapeutics, Inc., priority 2010, published 2011).

Tests used:
[1] = system: EFT-400 tissues; assay: Sunburned cell counts in UV-irradiated EpiDerm-FT (EFT-400) skin model tissues, H&E histology; format: cell-based, human
Description: Packaged tissues were stored at 4° C. overnight and then re-equilibrated in EFT-400-ASY medium overnight prior to the start of experiments. The sample size was n=3 for each treatment group in the gene expression experiments; and n=6 (two independent experiments of n=3) for the sunburned cell counts.
Treated and untreated tissues were exposed to UV irradiation with 200 mJ/cm^2UVB/29.94 mW/cm^2UVA simulated solar UV light (Honle-500 solar lamp).
(§1) At the conclusion of the 24 hour post-irradiation period, EFT-400 tissues were fixed in 10% formalin for 2 hours at room temperature (two independent experiments with n=3). Formalin fixed tissues were embedded in paraffin and 6 micron slices were stained with haematoxylin and eosin (H&E).

[2] = system: EFT-400 tissues; assay: Adverse effects of treatment on EFT-400 tissues (H&E stained histology); details: 50 μM in the basolateral medium
Description: as §1

[3] = system: EFT-400 tissues; assay: Gene expression by quantitative PCR custom array in EFT-400 tissues with or without UV irradiation; details: for AVG Ct ACTB (housekeeping gene) / AVG Ct AQP3 / AVG Ct BCL2L1 / AVG Ct COL1A1 / AVG Ct COL4A2 / AVG Ct COL5A1 / AVG Ct COL6A1 / AVG Ct COL6A2 / AVG Ct COL7A1 / AVG Ct COL8A1 / AVG Ct COL11A1 / AVG Ct COL12A1 / AVG Ct COL14A1 / AVG Ct COL15A1 / AVG Ct COL16A1 / AVG Ct CYP2E1 / AVG Ct DSG1 / AVG Ct ERCC1 / AVG Ct FN1 / AVG Ct GAPDH (housekeeping gene) / AVG Ct GDF15 / AVG Ct GSTM3 / AVG Ct HSPA8 / AVG Ct IL1A / AVG Ct IL1B / AVG Ct IL8 / AVG Ct KAL1 / AVG Ct KRT16 / AVG Ct LAMA1 / AVG Ct LAMA2 / AVG Ct LAMA3 / AVG Ct LAMA5 / AVG Ct LAMB1 / AVG Ct LAMB3 / AVG Ct LAMC1 / AVG Ct MMP1 / AVG Ct MMP2 / AVG Ct MT2A / AVG Ct PCNA / AVG Ct RPL13A (housekeeping gene) / AVG Ct SIRT1 / AVG Ct TGFBI / AVG Ct THBS3 / AVG Ct TNC / AVG Ct VTN: 50 uM Genistein
Description: EpiDerm-FT™ (EFT-400) tissues were produced and packaged in the MatTek Corporation GMP tissue culture production laboratories following standard procedures. Packaged tissues were stored at 4° C. overnight and then re-equilibrated in EFT-400-ASY medium overnight prior to the start of experiments. The sample size was n=3 for each treatment group in the gene expression experiments; and n=6 (two independent experiments of n=3) for the sunburned cell counts.
Total RNA was isolated from the EFT-400 tissues (RNAqueous kit, Ambion) (n=3) and utilized for gene expression analysis by quantitative PCR on an SABioscience custom array containing 42 Human Extracellular Matrix (ECM) and Adhesion Molecules RT^2 Profiler™ PCR Array, stress and toxicity genes whose expression, based on MatTek data, are known to be dramatically altered by UV-protective compounds on UV damaged skin. […] Further, there were three internal control spots on the array that corresponded to human genomic DNA contamination (HGDC), positive PCR control (PPC), and reverse transcription control (RTC).

AVG Ct CYP2E1 ([3]; No UV): 31.05
AVG Ct CYP2E1 ([3]; UVB + UVA): 29.69
Structure (SMILES): O=c1c(-c2ccc(O)cc2)coc2cc(O)cc(O)c12 [Genistein, reference compound]
sunburned cell formation ([1]; 50 μM, 200 mJ/cm2 UVB/29.94 mW/cm2 UVA, 24 hour post irradiation): did not decrease sunburned cell formation to the same extent as 100 ng/ml NELL1
number of sunburned cells as compared to UV-only controls ([1]; pre-treatment 30 minutes prior to UV, continued 24 hours post-irradiation): statistically significant reduction in the number of sunburned cells
adverse effects on the EFT-400 tissues [2]: did not produce any noteworthy adverse effects
activity in producing the observed effects (sunburned cells, gene expression) ([3]; NELL1 protein at 100 ng/ml, genistein at 50 μM): most active in producing the observed effects
AVG Ct ACTB (housekeeping gene) ([3]; No UV): 18.95
AVG Ct AQP3 ([3]; No UV): 23.75
AVG Ct BCL2L1 ([3]; No UV): 24.35
AVG Ct COL1A1 ([3]; No UV): 18.66
AVG Ct COL4A2 ([3]; No UV): 26.06
AVG Ct COL5A1 ([3]; No UV): 23.19
AVG Ct COL6A1 ([3]; No UV): 19.41
AVG Ct COL6A2 ([3]; No UV): 19.82
AVG Ct COL7A1 ([3]; No UV): 26.3
AVG Ct COL8A1 ([3]; No UV): 28.27
AVG Ct COL11A1 ([3]; No UV): 27.54
AVG Ct COL12A1 ([3]; No UV): 25.19
AVG Ct COL14A1 ([3]; No UV): 26.08
AVG Ct COL15A1 ([3]; No UV): 25.73
AVG Ct COL16A1 ([3]; No UV): 24.6
AVG Ct DSG1 ([3]; No UV): 20.31
AVG Ct ERCC1 ([3]; No UV): 24.94
AVG Ct FN1 ([3]; No UV): 21.06
AVG Ct GAPDH (housekeeping gene) ([3]; No UV): 17.74
AVG Ct GDF15 ([3]; No UV): 27.52
AVG Ct GSTM3 ([3]; No UV): 29.01
AVG Ct HSPA8 ([3]; No UV): 20.53
AVG Ct IL1A ([3]; No UV): 25.92
AVG Ct IL1B ([3]; No UV): 29.03
AVG Ct IL8 ([3]; No UV): 23.12
AVG Ct KAL1 ([3]; No UV): 31.59
AVG Ct KRT16 ([3]; No UV): 17.11
AVG Ct LAMA1 ([3]; No UV): 29.54
AVG Ct LAMA2 ([3]; No UV): 25.35
AVG Ct LAMA3 ([3]; No UV): 24.25
AVG Ct LAMA5 ([3]; No UV): 27.39
AVG Ct LAMB1 ([3]; No UV): 23.3
AVG Ct LAMB3 ([3]; No UV): 25.31
AVG Ct LAMC1 ([3]; No UV): 23.09
AVG Ct MMP1 ([3]; No UV): 22.22
AVG Ct MMP2 ([3]; No UV): 19.2
AVG Ct MT2A ([3]; No UV): 18.74
AVG Ct PCNA ([3]; No UV): 23.76
AVG Ct RPL13A (housekeeping gene) ([3]; No UV): 20.65
AVG Ct SIRT1 ([3]; No UV): 26.45
AVG Ct TGFBI ([3]; No UV): 22.04
AVG Ct THBS3 ([3]; No UV): 29.09
AVG Ct TNC ([3]; No UV): 22.12
AVG Ct VTN ([3]; No UV): 32.74
expression of IL-1β elevated after UV exposure ([3]; UV-irradiated): decrease in the expression
expression of IL-8 elevated after UV exposure ([3]; UV-irradiated): decrease in the expression
expression of MMP-1 elevated after UV exposure ([3]; UV-irradiated): decrease in the expression
levels of AQP3 RNA after UV exposure ([3]; UV-irradiated): did not have an effect on AQP3 levels
reversing the UV-induced effects on gene expression ([3]; UV-irradiated): most effective at reversing the UV-induced effects
UV-elevated levels of AQP3 ([3]; UV-irradiated, genistein): did not have the same effect
AVG Ct ACTB (housekeeping gene) ([3]; UVB + UVA): 18.85
AVG Ct AQP3 ([3]; UVB + UVA): 23.01
AVG Ct BCL2L1 ([3]; UVB + UVA): 23.79
AVG Ct COL1A1 ([3]; UVB + UVA): 18.54
AVG Ct COL4A2 ([3]; UVB + UVA): 21.82
AVG Ct COL5A1 ([3]; UVB + UVA): 23.29
AVG Ct COL6A1 ([3]; UVB + UVA): 19.47
AVG Ct COL6A2 ([3]; UVB + UVA): 19.68
AVG Ct COL7A1 ([3]; UVB + UVA): 24.97
AVG Ct COL8A1 ([3]; UVB + UVA): 27.28
AVG Ct COL11A1 ([3]; UVB + UVA): 27.6
AVG Ct COL12A1 ([3]; UVB + UVA): 24.93
AVG Ct COL14A1 ([3]; UVB + UVA): 25.69
AVG Ct COL15A1 ([3]; UVB + UVA): 25.83
AVG Ct COL16A1 ([3]; UVB + UVA): 23.98
AVG Ct DSG1 ([3]; UVB + UVA): 21.03
AVG Ct ERCC1 ([3]; UVB + UVA): 24.08
AVG Ct FN1 ([3]; UVB + UVA): 20.79
AVG Ct GAPDH (housekeeping gene) ([3]; UVB + UVA): 18.39
AVG Ct GDF15 ([3]; UVB + UVA): 21.74
AVG Ct GSTM3 ([3]; UVB + UVA): 28.37
AVG Ct HSPA8 ([3]; UVB + UVA): 20.14
AVG Ct IL1A ([3]; UVB + UVA): 25.87
AVG Ct IL1B ([3]; UVB + UVA): 28.03
AVG Ct IL8 ([3]; UVB + UVA): 20.61
AVG Ct KAL1 ([3]; UVB + UVA): 31.72
AVG Ct KRT16 ([3]; UVB + UVA): 17.92
AVG Ct LAMA1 ([3]; UVB + UVA): 28.49
AVG Ct LAMA2 ([3]; UVB + UVA): 25.42
AVG Ct LAMA3 ([3]; UVB + UVA): 24.01
AVG Ct LAMA5 ([3]; UVB + UVA): 27.71
AVG Ct LAMB1 ([3]; UVB + UVA): 22.85
AVG Ct LAMB3 ([3]; UVB + UVA): 24.92
AVG Ct LAMC1 ([3]; UVB + UVA): 22.69
AVG Ct MMP1 ([3]; UVB + UVA): 20.16
AVG Ct MMP2 ([3]; UVB + UVA): 18.5
AVG Ct MT2A ([3]; UVB + UVA): 16.4
AVG Ct PCNA ([3]; UVB + UVA): 23.21
AVG Ct RPL13A (housekeeping gene) ([3]; UVB + UVA): 20.68
AVG Ct SIRT1 ([3]; UVB + UVA): 25.31
AVG Ct TGFBI ([3]; UVB + UVA): 22.03
AVG Ct THBS3 ([3]; UVB + UVA): 28.97
AVG Ct TNC ([3]; UVB + UVA): 21.29
AVG Ct VTN ([3]; UVB + UVA): 32.61
extent of gene expression changes in the absence of UV irradiation, compared to NELL1 ([3]; no UV): more changes compared to NELL1
gene expression in the absence of UV irradiation ([3]; no UV): some decreases in gene expression
